# Results from patent US10646538B2, “Self-assembling tripeptides” (ENDO Biologics, Inc., priority 2014, dated 2020).
# Entries after “also recorded” stand apart in the source; their conditions may differ. Peptide text beside a SMILES is read from it.
# What was measured:
# Type in all cases: physicochemical
# [1] = Aggregation behaviour of tripeptides dissolved in water at pH 7; details: for solubility: water / D2O; for aggregation behavior on dissolving in water: water at pH 7, 30 mmol/L
# Experimental: Tripeptides were dissolved in water by sonication and vortexing, followed by bringing the pH to 7.2±0.1 by dropwise addition of 0.25 M NaOH solution to a final concentration of 30 mmol/L. These were diluted to 10 mmol/L for DLS and NMR experiments. Note that the KYF gel could also be prepared by direct dissolution into a 0.1 M phosphate buffer at pH 7. Characterization of the resulting samples took places at least 24 hours after sample preparation. Samples for FTIR and NMR analysis were prepared using D2O (99.9% D) and NaOD solution instead of H2O and NaOH.
# The bottom half of Table 2 contains the tripeptides that were selected for synthesis and experimental characterization. The selection was made to include a wide range of AP and APH scores, including PFF (#1 from AP score) and KFD (#1 from APH score) and peptides that adhere to one or more of our design rules formulated above, such as KYF. […] These peptides were dissolved in water at pH 7 and their aggregation behavior was studied in order to test the predictive value of our method.
# [2] = Dynamic light scattering (DLS); details: 10 mM at pH 7, 25° C.
# Experimental: The dynamic light scattering (DLS) measurements were carried out on 10 mmol/L peptide solutions (i.e. below the critical gelation concentration) by using a 3 DDLS spectrophotometer (LS instruments, Fribourg, Switzerland) using vertically polarized He—Ne laser light (25 mW with wavelength of 632.8 nm) with an avalanche photodiode detector at an angle of 90° at 25° C. Intensity autocorrelation functions were recorded and analyzed by means of the cumulant method in order to determine the intensity weighted diffusion coefficients D and the average hydrodynamic radius Rh by using the Stokes-Einstein equation, Rh=kBT/6πηD, where kB is the Boltzmann constant, T is the absolute temperature and η is the solvent viscosity at the given temperature.
# To further confirm the presence (and size) of the peptide aggregates formed, dynamic light scattering (DLS) experiments were performed on the KYF gel, PFF suspension and KFD and GGG solutions.
# [3] = FTIR spectroscopy, amide I region; details: 30 mM in D2O at pH 7
# Experimental: Samples were contained in a standard IR transmission cell (Harrick Scientific) between two 2 mm CaF2 windows, separated by a polytetrafluoroethylene (PFTE) spacer of 50 μm thickness. Spectra were recorded on a Bruker Vertex 70 spectrometer by averaging 25 scans at a spectral resolution of 1 cm^−1. Spectra were corrected for absorption from a phosphate buffer blank sample and absorptions from trifluoroacetic acid (TFA).
# The secondary structure of the peptides can be probed by infrared (IR) spectroscopy.^45,46 When aggregation takes place via intermolecular hydrogen bonding of the amide groups, the 1650-1655 cm^−1 absorption observed for free peptides in solution typically narrows and shifts to lower frequency, while the 1595 cm^−1 peak, assigned to carboxylate groups, broadens or decreases in intensity due to protonation or salt bridge formation. […] Note that small absorption maxima in the 1670-1685 cm^−1 region are assigned to residual trifluoro-acetic acid absorption and the 1570-1580 cm^−1 band for KFD is assigned to the aspartic acid side chain carboxylate group.
# For KYF, a dramatic change in the amide region was noticed upon gelation with intense IR absorption peaks at 1621 and 1649 cm^−1 for the amide groups and 1568 cm^−1 for salt-bridged carboxylate groups.
# [4] = pH dependence of the gelation of KYF
# Experimental: We investigated the effects of pH on the gelation of the tripeptide KYF in aqueous solvent. […] The alteration of the pH will affect the protonation state of the ionisable groups on KYF i.e., N and C termini and the lysine side groups.
# pH measurements were carried out ranging from pH 5 to 8. At each pH measurement an image was taken to show the gelation behaviour. The pH was altered using 0.5M NaOH which is added drop wise into the vial, vortexed to ensure a complete mix then the pH is measured until a stable value is obtained.
# Initially, the peptide sample is dissolve in water and the pH is recorded. At this point the pH is below the pKa of the C-terminus therefore the terminal acid is protonated and gelation should not occur, which is what was observed.
# [5] = Diffusion Ordered NMR spectroscopy (DOSY); details: 10 mM in D2O, pH 7, 298 K
# Text: DOSY spectra were acquired at 600 MHz using a Bruker Avance 600 spectrometer using the Bruker microprogram dstebpgp3sat at 298 K. The eddy current delay (Te) was set to 5 ms. The diffusion time was adjusted to 100 ms. […] The pulse gradient was increased from 2 to 95% of the maximum gradient strength using a linear ramp 16 k data points in the F2 dimension (20 ppm) and 16 data points in the F1 dimension were collected. […] This method is able to determine the diffusion coefficient D of supramolecular aggregates and therefore their relative size, as described by the Stokes-Einstein equation.^43,44 Diffusion constants for all the studied tripeptides can be found in Table 2. […] For the remaining peptides, DOSY results are in good agreement with the predicted aggregation propensity at 50 ns.
# [6] = TEM of tripeptide samples; details: samples at pH 7
# Experimental: Carbon-coated copper grids (200 mesh) were glow discharged in air for 30 s. The support film was touched onto the gel surface for 3 s and blotted down using filter paper. Negative stain ([…], 1% aqueous methylamine vanadate (Nanovan; Nanoprobes) was applied and the mixture was blotted again using filter paper to remove excess. The dried specimens were then imaged using a LEO 912 energy filtering transmission electron microscope operating at 120 kV fitted with 14 bit/2 K Proscan CCD camera
SMILES,solubility [1],aggregation behavior on dissolving in water [1],average hydrodynamic radius / relative size of the aggregates (DLS) [2] [μm],diffusion constant (DOSY) [5],secondary structure from amide I IR absorption [3],nanostructure seen by TEM [6],other results
CC[C@H](C)[C@H](N)C(=O)N[C@@H](Cc1ccc(O)cc1)C(=O)N[C@@H](Cc1ccccc1)C(=O)O [IYF] (H-Ile-Tyr-Phe-OH),poor solubility,precipitated,–,–,–,–,–
"NCC(=O)NCC(=O)NCC(=O)O [GGG, reference compound] (H-Gly-Gly-Gly-OH)",–,–,0.10,highest diffusion constant,–,–,–
O=C(O)[C@H](Cc1ccccc1)NC(=O)[C@H](Cc1ccccc1)NC(=O)[C@@H]1CCCN1 [PFF] (H-Pro-Phe-Phe-OH),poor solubility; also recorded: low solubility,suspensions,0.70,–,β-sheet like arrangement of the amide groups,short crystalline nanostructures with a large aspect ratio,–
CC[C@H](C)[C@H](NC(=O)[C@H](Cc1ccc(O)cc1)NC(=O)[C@@H](N)Cc1ccccc1)C(=O)O [FYI] (H-Phe-Tyr-Ile-OH),poor solubility,precipitated,–,–,–,–,–

# Now from value to molecule, other results behind:
solubility [1],aggregation behavior on dissolving in water [1],average hydrodynamic radius / relative size of the aggregates (DLS) [2] [μm],diffusion constant (DOSY) [5],SMILES,secondary structure from amide I IR absorption [3],nanostructure seen by TEM [6],other results
poor solubility,suspensions,–,–,N[C@@H](Cc1ccccc1)C(=O)N[C@@H](Cc1c[nH]cn1)C(=O)N[C@@H](Cc1ccccc1)C(=O)O [FHF] (H-Phe-His-Phe-OH),–,–,–
–,translucent self-supporting hydrogel,0.26,lowest diffusion constant,NCCCC[C@H](N)C(=O)N[C@@H](Cc1ccc(O)cc1)C(=O)N[C@@H](Cc1ccccc1)C(=O)O [KYF] (H-Lys-Tyr-Phe-OH),well-ordered peptide nanostructure,entangled fibrous network,"pH of critical gelation ([4]; aqueous, pH raised with 0.5M NaOH): 6.9-7.05; gelation behaviour ([4]; pH 2.21 to 6.7, aqueous): remained as a clear solution; gelation behaviour ([4]; pH 6.9, aqueous): weak gel; gelation behaviour ([4]; pH 7.05, aqueous): self-supporting hydrogel; gelation behaviour ([4]; pH 7.05 until 7.98, aqueous): stronger gels"
–,–,0.13,intermediate diffusion rate,NCCCC[C@H](N)C(=O)N[C@@H](Cc1ccccc1)C(=O)N[C@@H](CC(=O)O)C(=O)O [KFD] (H-Lys-Phe-Asp-OH),no extended secondary structure formation,strongly curved fibers together with more amorphous regions,–
–,did not give a gel,–,–,N=C(N)NCCC[C@H](N)C(=O)N[C@@H](Cc1ccc(O)cc1)C(=O)N[C@@H](Cc1ccccc1)C(=O)O [RYF] (H-Arg-Tyr-Phe-OH),–,–,–
insoluble in water,–,–,–,N[C@@H](CO)C(=O)N[C@@H](Cc1ccc(O)cc1)C(=O)N[C@@H](Cc1ccccc1)C(=O)O [SYF] (H-Ser-Tyr-Phe-OH),–,–,–
